# Biological target: T1, MAGL (Homo sapiens, UniProt Q99685)
# T1 sequence (Q99685 1-303): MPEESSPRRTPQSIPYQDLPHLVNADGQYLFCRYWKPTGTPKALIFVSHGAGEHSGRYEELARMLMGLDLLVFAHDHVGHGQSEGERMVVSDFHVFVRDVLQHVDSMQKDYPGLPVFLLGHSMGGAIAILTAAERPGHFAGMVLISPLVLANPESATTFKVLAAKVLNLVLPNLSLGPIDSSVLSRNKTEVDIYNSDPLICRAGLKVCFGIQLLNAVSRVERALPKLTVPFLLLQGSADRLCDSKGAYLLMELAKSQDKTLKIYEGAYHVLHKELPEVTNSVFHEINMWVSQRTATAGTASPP
# Assay: 2-AG assay: MAGL inhibition followed by hydrolysis of 2-arachidonoylglycerol to arachidonic acid, mass spectrometry
# Format: biochemical
# Details: measured in 2-AG assay (footnote [a]); substrate 2-arachidonoylglycerol 8 μM, 30 min at RT
# Description: Alternatively, compounds were profiled for MAGL inhibitory activity by determining the enzymatic activity by following the hydrolysis of the natural substrate, 2-arachidonoylglycerol, resulting in arachidonic acid, which can be followed by mass spectrometry. This assay is hereinafter abbreviated “2-AG assay”.
# Detection by mass spectrometry in the present 2-AG assay has the advantage over known optical assays that the natural enzyme substrate, 2-arachidonoylglycerol, can be used instead of structurally unrelated compounds needed for optical readouts (such as 4-NPA). It thereby delivers more relevant data for activity determination, reduces false positives and generally adds to data quality. In addition, this assay reduces the analysis time from about 10 minutes per sample with standard methods to under 10 seconds per sample. This allows for using the present 2-AG assay in a method for high throughput screening of compounds for their MAGL inhibitory activity.
# The 2-AG assay was carried out in 384 well assay plates (PP, Greiner Cat #784201) in a total volume of 20 μL. Compound dilutions were made in 100% DMSO (VWR Chemicals 23500.297) in a polypropylene plate in 3-fold dilution steps to give a final concentration range in the assay from 12.5 μM to […]. 0.25 μL compound dilutions (100% DMSO) were added to 9 μL MAGL in assay buffer (50 mM TRIS (GIBCO, 15567-027), 1 mM EDTA (Fluka, 03690-100 mL), 0.01% (v/v) Tween. After shaking, the plate was incubated for 15 min at RT. To start the reaction, 10 μL 2-arachidonoylglycerol in assay buffer was added. The final concentrations in the assay was […] and 8 μM 2-arachidonoylglyerol. After shaking and 30 min incubation at RT, the reaction was quenched by the addition of 40 μL of acetonitrile containing 4 μM of d8-arachidonic acid. The amount of arachidonic acid was traced by an online SPE system (Agilent Rapidfire) coupled to a triple quadrupole mass spectrometer (Agilent 6460). A C18 SPE cartridge (G9205A) was used in an acetonitrile/water liquid setup. The mass spectrometer was operated in negative electrospray mode following the mass transitions 303.1→259.1 for arachidonic acid and 311.1→267.0 for d8-arachidonic acid. The activity of the compounds was calculated based on the ratio of intensities [arachidonic acid/d8-arachidonic acid].
# In a preferred embodiment, the method for determining the MAGL inhibitory activity of a test compound according to the invention, comprises: • (i) providing a solution of a test compound; • (ii) adding the solution of step (i) to a solution of MAGL; • (iii) shaking the mixture obtained from step (ii); • (iv) incubating the mixture obtained from step (iii); • (v) adding a solution of 2-arachidonoylglycerol; • (vi) incubating the mixture obtained from step (v); • (vii) adding a solution of d8-arachidonic acid; and • (viii) determining the ratio of intensities arachidonic acid/d8-arachidonic acid using a mass spectrometer.
row,Compound,IC50 [µM]
1,"Cc1ccccc1C#CC1CN(C(=O)N2CC[C@@H]3OCC(=O)N[C@@H]3C2)C1 [Example 173, (4aR,8aS)-6-(3-(o-Tolylethynyl)azetidine-1-carbonyl)hexahydro-2H-pyrido[4,3-b][1,4]oxazin-3(4H)-one]",0.01
2,"CN(CC1CN(C(=O)N2CC[C@@H]3OCC(=O)N[C@@H]3C2)C1)C(c1ccc(C(F)(F)F)cc1)C(F)(F)F (stereo partly drawn) [Example 80, (4aR,8aS)-6-(3-((Methyl(2,2,2-trifluoro-1-(4-(trifluoromethyl)phenyl)ethyl)amino)methyl)azetidine-1-carbonyl)hexahydro-2H-pyrido[4,3-b][1,4]oxazin-3 (4H)-one]",0.004
3,"O=C1CO[C@H]2CCN(C(=O)N3CCC(C#Cc4ccccc4Cl)CC3)C[C@H]2N1 [Example 125, (+)-(4aR,8aS)-6-[4-[2-(2-Chlorophenyl)ethynyl]piperidine-1-carbonyl]-4,4a,5,7,8,8a-hexahydropyrido[4,3-b][1,4]oxazin-3-one]",0.03
4,"O=C1CO[C@H]2CCN(C(=O)N3CC(CNC(c4ccc(Cl)cc4Cl)C(F)(F)F)C3)C[C@H]2N1 (stereo partly drawn) [Example 69, (4aR,8aS)-6-(3-(((1-(2,4-Dichlorophenyl)-2,2,2-trifluoroethyl)amino)methyl)azetidine-1-carbonyl)hexahydro-2H-pyrido[4,3-b][1,4]oxazin-3(4H)-one]",0.008
5,"O=C1CO[C@H]2CCN(C(=O)N3CCC(C#Cc4ccc(F)cc4Cl)CC3)C[C@H]2N1 [Example 128, (+)-(4aR,8aS)-6-[4-[2-(2-Chloro-4-fluorophenyl)ethynyl]piperidine-1-carbonyl]-4,4a,5,7,8,8a-hexahydropyrido[4,3-b][1,4]oxazin-3-one]",0.023
6,"O=C1CO[C@H]2CCN(C(=O)N3CC(C#Cc4ccc(F)cc4Cl)C3)C[C@H]2N1 [Example 135, (+)-(4aR,8aS)-6-[3-[2-(2-Chloro-4-fluorophenyl)ethynyl]azetidine-1-carbonyl]-4,4a,5,7,8,8a-hexahydropyrido[4,3-b][1,4]oxazin-3-one]",0.013
7,"O=C1CO[C@H]2CCN(C(=O)N3CC(S(=O)(=O)c4ccc(C(F)(F)F)cc4Cl)C3)C[C@H]2N1 [Example 144, (4aR,8aS)-6-[3-[2-Chloro-4-(trifluoromethyl)phenyl]sulfonylazetidine-1-carbonyl]-4,4a,5,7,8,8a-hexahydropyrido[4,3-b][1,4]oxazin-3-one]",2.64
8,"O=C1CO[C@H]2CCN(C(=O)N3CC(C#Cc4ccc(C5(O)CC5)cc4)C3)C[C@H]2N1 [Example 180, (4aR,8aS)-6-[3-[2-[4-(1-Hydroxycyclopropyl)phenyl]ethynyl]azetidine-1-carbonyl]-4,4a,5,7,8,8a-hexahydropyrido[4,3-b][1,4]oxazin-3-one]",0.038
9,"O=C1CO[C@H]2CCN(C(=O)N3CC(C#Cc4c(F)cccc4F)C3)C[C@H]2N1 [Example 159, (4aR,8aS)-6-(3-((2,6-Difluorophenyl)ethynyl)azetidine-1-carbonyl)hexahydro-2H-pyrido[4,3-b][1,4]oxazin-3(4H)-one]",0.034
10,"O=C1CO[C@H]2CCN(C(=O)N3CC(C#Cc4cccc(F)c4Cl)C3)C[C@H]2N1 [Example 172, (4aR,8aS)-6-(3-((2-Chloro-3fluorophenyl)ethynyl)azetidine-1-carbonyl)hexahydro-2H-pyrido[4,3-b][1,4]oxazin-3(4H)-one]",0.016
11,"CN(C(=O)Cc1cc(C(F)(F)F)ccc1Cl)C1CCN(C(=O)N2CC[C@@H]3OCC(=O)N[C@@H]3C2)CC1 [Example 84, N-[1-[(4aR,8aS)-3-oxo-4,4a,5,7,8,8a-hexahydropyrido[4,3-b][1,4]oxazine-6-carbonyl]piperidin-4-yl]-2-[2-chloro-5-(trifluoromethyl)phenyl]-N-methylacetamide]",1.14
12,"O=C1CO[C@H]2CCN(C(=O)N3CC(C#Cc4cc(F)ccc4Cl)C3)C[C@H]2N1 [Example 185, (4aR,8aS)-6-[3-[2-(2-Chloro-5-fluorophenyl)ethynyl]azetidine-1-carbonyl]-4,4a,5,7,8,8a-hexahydropyrido[4,3-b][1,4]oxazin-3-one]",0.036
13,"O=C1CO[C@H]2CCN(C(=O)N3CCC(C(NCc4cccc(C(F)(F)F)c4)C(F)(F)F)CC3)C[C@H]2N1 (stereo partly drawn) [Example 107, (4aR,8aS)-6-[4-[2,2,2-Trifluoro-1-[[3-(trifluoromethyl)phenyl]methylamino]ethyl]piperidine-1-carbonyl]-4,4a,5,7,8,8a-hexahydropyrido[4,3-b][1,4]oxazin-3-one]",0.055
14,"CC1(C#Cc2ccc(F)cc2Cl)CCN(C(=O)N2CC[C@@H]3OCC(=O)N[C@@H]3C2)CC1 [Example 197, (4aR,8aS)-6-(4-((2-Chloro-4-fluorophenyl)ethynyl)-4-methylpiperidine-1-carbonyl)hexahydro-2H-pyrido[4,3-b][1,4]oxazin-3(4H)-one]",0.23
15,O=C1CO[C@H]2CCN(C(=O)N3CC(C#Cc4ccccc4Cl)C3)C[C@H]2N1 [Example 133],0.009
16,"Cc1cccc(C)c1C#CC1CCN(C(=O)N2CC[C@@H]3OCC(=O)N[C@@H]3C2)CC1 [Example 195, (4aR,8aS)-6-(4-((2,6-Dimethylphenyl)ethynyl)piperidine-1-carbonyl)hexahydro-2H-pyrido[4,3-b][1,4]oxazin-3(4H)-one]",0.025
17,"O=C1CO[C@H]2CCN(C(=O)N3CC(CNC(c4ccc(F)cc4)C(F)(F)F)C3)C[C@H]2N1 (stereo partly drawn) [Example 106, (4aR,8aS)-6-[3-[[[2,2,2-Trifluoro-1-(4-fluorophenyl)ethyl]amino]methyl]azetidine-1-carbonyl]-4,4a,5,7,8,8a-hexahydropyrido[4,3-b][1,4]oxazin-3-one]",0.264
18,"O=C1CO[C@H]2CCN(C(=O)N3CC(CNC(c4ccccc4Cl)C(F)(F)F)C3)C[C@H]2N1 (stereo partly drawn) [Example 70, (4aR,8aS)-6-(3-(((1-(2-Chlorophenyl)-2,2,2-trifluoroethyl)amino)methyl)azetidine-1-carbonyl)hexahydro-2H-pyrido[4,3-b][1,4]oxazin-3(4H)-one]",0.012
19,CN(C(=O)C1(c2cccc(C(F)(F)F)c2)CC1)C1CCN(C(=O)N2CC[C@@H]3OCC(=O)N[C@@H]3C2)CC1 [Example 82],0.349
20,"O=C1CO[C@H]2CCN(C(=O)N3CC(C#Cc4ccc(Cl)cc4F)C3)C[C@H]2N1 [Example 174, (4aR,8aS)-6-[3-[2-(4-Chloro-2-fluorophenyl)ethynyl]azetidine-1-carbonyl]-4,4a,5,7,8,8a-hexahydropyrido[4,3-b][1,4]oxazin-3-one]",0.012
21,"O=C1CO[C@H]2CCN(C(=O)N3CC(C#Cc4ccc(OC(F)(F)F)cc4)C3)C[C@H]2N1 [Example 166, (4aR,8aS)-6-[3-[2-[4-(Trifluoromethoxy)phenyl]ethynyl]azetidine-1-carbonyl]-4,4a,5,7,8,8a-hexahydropyrido[4,3-b][1,4]oxazin-3-one]",0.009
22,"O=C1CO[C@H]2CCN(C(=O)N3CC(C#Cc4ccc(Cl)cc4C(F)(F)F)C3)C[C@H]2N1 [Example 164, (4aR,8aS)-6-[3-[2-[4-Chloro-2-(trifluoromethyl)phenyl]ethynyl]azetidine-1-carbonyl]-4,4a,5,7,8,8a-hexahydropyrido[4,3-b][1,4]oxazin-3-one]",0.003
23,"O=C1CO[C@H]2CCN(C(=O)N3CC(CNC(c4cccc(C(F)(F)F)c4)C(F)(F)F)C3)C[C@H]2N1 (stereo partly drawn) [Example 68, (4aR,8aS)-6-(3-(((2,2,2-Trifluoro-1-(3-(trifluoromethyl)phenyl)ethyl)amino)methyl)azetidine-1-carbonyl)hexahydro-2H-pyrido[4,3-b][1,4]oxazin-3(4H)-one]",0.018
